Results as given in US9440957B2, “Compounds and compositions for modulating EGFR Activity” (Novartis AG, priority 2012, dated 2016).
Like-named read-outs stand apart in the source and are kept apart here.

Legend:
EGFR(L858R/T790M) = biological target: T1, EGFR(L858R/T790M) (Homo sapiens, UniProt P00533, L858R/T790M); assay: EGFR biochemical assay (HTRF), IC50 determinations
T1 construct: purchased from Carna (GST-a.a. 669-1210)
Method in brief: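 HTRF kinase reaction with biotin-TK peptide at room temperature, quenched with EDTA at 60 min and detected with PT66K/SAXL after 1 h. Without preincubation, enzyme starts the reaction with compound, ATP and peptide present. With preincubation, compound, enzyme and peptide sit at room temperature for a set time before ATP is added.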

H1975 (EGFR L858/T790M) = H1975 (EGFR L858/T790M) (Homo sapiens, UniProt P00533, L858R/T790M); assay: EGFR target modulation in H1975 cell line (phospho-EGFR Y1173 ELISA); assay type: cell-based
Procedure: (§1) EGFR Target Modulation in H1975, H3255 and HCC827 Cell Lines Tissue Culture. Cells were maintained in 10% FBS/RPMI supplemented with 100 μg/ml Penicillin/Streptomycin (Hyclone #SH30236.01). […] The cells were allowed to incubate overnight in a 37° C., 5% CO2 humidified tissue culture incubator. […] The serial diluted compounds were transferred to the plate containing cells by using a 50 nl Pin Head device (Perkin Elmer) and the cells were placed back in the incubator for 3 hours. Phospho-EGFR ([…]) Target Modulation Assay. The media was reduced to 20 ul using a Bio-Tek ELx 405 SelectTM plate washer. […] The plates were shaken at 4° C. for 20 minutes. An aliquot of 25 ul from each well was transferred to pEGFR(Y1173) ELISA plates for analysis. Phospho-EGFR ([…]) ELISA. Solid white high-binding ELISA plates (Greiner #781074) were coated with 5 ug/ml anti-EGFR capture antibody (R&D Systems #AF231) overnight in 50 mM carbonate/bicarbonate pH 9.5 buffer. Plates were blocked with 1% BSA (Sigma #A7030) in PBS for 1 hour at room temperature. Wash steps were carried out with a Bio-Tek ELx405 SelectTM using 4 cycles of 100 ul TBS-T (20 mM Tris, 137 mM NaCl, 0.05% Tween-20) per well. […] Lysis was allowed to occur for 20 minutes on ice. A 25 ul aliquot was added to each well of the blocked ELISA plate and incubated overnight at 4° C. with gentle shaking. […] After washing, 1:2,000 anti-rabbit-HRP (Cell Signaling #7074) in 0.2% BSA/TBS-T was added and incubated for 1 hour at room temperature. Chemiluminescent detection was carried out with SuperSignal ELISA Pico substrate (ThermoScientific #37069). Signal was read on EnVision plate reader using built-in UltraLUM setting. Data Analysis. Control cells treated with EGF were set to 100% maximum response. […] With these parameters, the IC50's for each compound in each cell line was calculated using non-linear curve fitting analysis.

H3255 (EGFR L858R) = H3255 (EGFR L858R) (Homo sapiens, UniProt P00533, L858R); assay: EGFR target modulation in H3255 cell line (phospho-EGFR Y1173 ELISA); assay type: cell-based
Chain of H3255 (EGFR L858R) (P00533 25-1210 L858R): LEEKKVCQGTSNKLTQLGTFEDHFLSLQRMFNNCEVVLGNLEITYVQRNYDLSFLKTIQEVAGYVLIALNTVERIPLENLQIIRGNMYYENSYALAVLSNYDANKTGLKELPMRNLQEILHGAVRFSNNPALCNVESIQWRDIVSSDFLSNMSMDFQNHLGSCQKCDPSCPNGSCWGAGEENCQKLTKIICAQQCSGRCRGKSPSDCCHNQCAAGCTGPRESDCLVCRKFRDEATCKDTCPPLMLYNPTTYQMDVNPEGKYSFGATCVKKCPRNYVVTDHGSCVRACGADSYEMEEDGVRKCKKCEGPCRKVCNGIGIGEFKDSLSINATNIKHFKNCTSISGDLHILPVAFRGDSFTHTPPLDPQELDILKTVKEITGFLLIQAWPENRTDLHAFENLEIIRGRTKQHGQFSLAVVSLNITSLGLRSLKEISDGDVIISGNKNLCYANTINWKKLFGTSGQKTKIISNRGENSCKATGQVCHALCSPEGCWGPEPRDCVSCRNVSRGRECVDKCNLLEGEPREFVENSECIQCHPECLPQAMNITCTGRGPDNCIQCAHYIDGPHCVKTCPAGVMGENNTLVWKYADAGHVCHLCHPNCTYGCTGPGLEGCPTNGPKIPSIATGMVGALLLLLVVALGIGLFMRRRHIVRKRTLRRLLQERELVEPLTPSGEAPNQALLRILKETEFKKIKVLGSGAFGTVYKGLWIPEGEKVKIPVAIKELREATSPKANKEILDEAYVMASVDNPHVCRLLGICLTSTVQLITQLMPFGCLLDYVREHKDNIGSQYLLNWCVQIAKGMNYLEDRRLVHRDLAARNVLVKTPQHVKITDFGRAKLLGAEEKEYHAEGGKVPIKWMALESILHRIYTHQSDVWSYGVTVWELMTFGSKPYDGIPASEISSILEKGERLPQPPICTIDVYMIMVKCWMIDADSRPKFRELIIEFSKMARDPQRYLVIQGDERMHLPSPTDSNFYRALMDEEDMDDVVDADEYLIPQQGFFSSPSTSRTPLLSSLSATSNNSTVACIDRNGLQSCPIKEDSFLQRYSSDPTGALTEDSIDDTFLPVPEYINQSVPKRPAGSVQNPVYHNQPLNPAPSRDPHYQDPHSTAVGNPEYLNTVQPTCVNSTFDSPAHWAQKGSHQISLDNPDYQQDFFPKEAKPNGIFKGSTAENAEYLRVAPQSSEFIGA
Procedure: as §1

HEKn (EGFR WT) = HEKn (EGFR WT) (Homo sapiens, UniProt P00533); assay: EGFR target modulation in HEKn (EGFR-WT) cell line (phospho-EGFR Y1173 ELISA); assay type: cell-based; conditions: value outside parentheses
Chain of HEKn (EGFR WT) (P00533 25-1210): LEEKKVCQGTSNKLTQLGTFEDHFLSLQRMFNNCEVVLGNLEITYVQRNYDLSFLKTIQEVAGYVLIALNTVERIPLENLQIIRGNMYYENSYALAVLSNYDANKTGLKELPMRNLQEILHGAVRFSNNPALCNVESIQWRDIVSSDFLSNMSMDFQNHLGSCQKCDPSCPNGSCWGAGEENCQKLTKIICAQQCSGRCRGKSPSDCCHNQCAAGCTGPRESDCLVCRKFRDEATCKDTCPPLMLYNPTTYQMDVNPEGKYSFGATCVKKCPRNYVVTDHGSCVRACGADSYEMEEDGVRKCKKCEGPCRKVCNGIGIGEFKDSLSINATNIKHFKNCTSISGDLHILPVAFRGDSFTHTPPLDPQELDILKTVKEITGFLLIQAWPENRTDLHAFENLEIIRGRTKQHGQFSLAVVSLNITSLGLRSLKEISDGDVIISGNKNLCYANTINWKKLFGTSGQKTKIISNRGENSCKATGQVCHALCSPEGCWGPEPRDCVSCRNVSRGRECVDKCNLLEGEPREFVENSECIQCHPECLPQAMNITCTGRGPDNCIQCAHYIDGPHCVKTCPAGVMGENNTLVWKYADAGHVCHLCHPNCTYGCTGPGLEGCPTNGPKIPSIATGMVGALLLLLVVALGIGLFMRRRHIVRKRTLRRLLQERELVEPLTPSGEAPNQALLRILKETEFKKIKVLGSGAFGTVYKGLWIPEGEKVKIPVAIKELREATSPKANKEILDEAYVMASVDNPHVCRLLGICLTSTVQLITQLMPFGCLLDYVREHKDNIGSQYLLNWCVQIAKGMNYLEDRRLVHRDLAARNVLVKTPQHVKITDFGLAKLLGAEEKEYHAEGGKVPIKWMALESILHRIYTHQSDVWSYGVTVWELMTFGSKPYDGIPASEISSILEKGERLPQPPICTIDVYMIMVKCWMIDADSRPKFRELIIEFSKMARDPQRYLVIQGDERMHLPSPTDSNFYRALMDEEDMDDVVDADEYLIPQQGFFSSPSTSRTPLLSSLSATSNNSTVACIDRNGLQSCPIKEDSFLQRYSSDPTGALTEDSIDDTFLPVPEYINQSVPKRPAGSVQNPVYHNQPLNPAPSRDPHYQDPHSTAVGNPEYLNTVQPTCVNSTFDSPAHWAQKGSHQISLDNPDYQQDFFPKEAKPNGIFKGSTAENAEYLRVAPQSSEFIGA
Procedure: EGFR Target Modulation in HEKn (EGFR-WT) Cell Line Tissue Culture. Human neonatal epithelial keratinocytes (Invitrogen #C-001-5C) were maintained in EpiLife media (Invitrogen #[…]) supplemented with growth factors (Invitrogen #S-001-5). Cells were harvested with 0.05% Trypsin/EDTA (Hyclone #SH30236.01) and quenched with 5% FBS/EpiLife media. […] The serial diluted compounds were transferred to the plate containing cells by using a 50 nl Pin Head device (Perkin Elmer) and the cells were placed back in the incubator for 3 hours. […] Phospho-EGFR (Y1173) ELISA. Solid white high-binding ELISA plates (Greiner #781074) were coated with 5 ug/ml anti-EGFR capture antibody (R&D Systems #AF231) overnight in 50 mM carbonate/bicarbonate pH 9.5 buffer. […] Wash steps were carried out with a Bio-Tek ELx405 SelectTM using 4 cycles of 100 ul TBS-T (20 mM Tris, 137 mM NaCl, 0.05% Tween-20) per well. […] Lysis was allowed to occur for 20 minutes on ice. A 25 ul aliquot was added to each well of the blocked ELISA plate and incubated overnight at 4° C. with gentle shaking. […] After washing, 1:2,000 anti-rabbit-HRP (Cell Signaling #7074) in 0.2% BSA/TBS-T was added and incubated for 1 hour at room temperature. Chemiluminescent detection was carried out with SuperSignal ELISA Pico substrate (ThermoScientific #37069). Signal was read on EnVision plate reader using built-in UltraLUM setting. Data Analysis. Control cells treated with EGF were set to 100% maximum response. […] With these parameters, the IC50's for each compound in each cell line was calculated using non-linear curve fitting analysis.

[1] = biological target: human EGFR WT (NIH/3T3 cells, EGF-induced) (Homo sapiens, UniProt P00533); assay: EGFR target modulation in engineered NIH/3T3 cell lines (phospho-EGFR Y1068 AlphaLISA), EGFR WT; assay type: cell-based; conditions: engineered NIH/3T3 cells, read-out: NIH3T3 IC50 (μM) EGFR (WT)
Method in brief: (§2)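 Engineered NIH/3T3 cells expressing EGFR variants treated 3 h at 37 °C with 12-point 1:3 compound series (top stock 10 μM); only WT cells stimulated with 50 ng/ml EGF for 5 min before lysis. Phospho-Y1068 measured by AlphaLISA with total-EGFR antibody; IC50 from non-linear fitting.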

[2] = biological target: human EGFR L858R (NIH/3T3 cells) (Homo sapiens, UniProt P00533, L858R); assay: EGFR target modulation in engineered NIH/3T3 cell lines (phospho-EGFR Y1068 AlphaLISA), EGFR L858R; assay type: cell-based; conditions: engineered NIH/3T3 cells, read-out: NIH3T3 IC50 (μM) EGFR (L858R)
Chain of human EGFR L858R (NIH/3T3 cells) (P00533 25-1210 L858R): as the sequence (P00533 25-1210 L858R) above
Method in brief: as §2

[3] = biological target: human EGFR L858R/T790M (NIH/3T3 cells) (Homo sapiens, UniProt P00533, L858R/T790M); assay: EGFR target modulation in engineered NIH/3T3 cell lines (phospho-EGFR Y1068 AlphaLISA), EGFR L858R/T790M; assay type: cell-based; conditions: engineered NIH/3T3 cells, read-out: NIH3T3 IC50 (μM) EGFR (L858R/T790M)
Method in brief: as §2

[4] = EGFR (L858R/T790M) with 90 min pre-incubation, read-out: IC50 (μM) Column B
[5] = EGFR (L858R/T790M) with no pre-incubation, read-out: IC50 (μM) Column A

T1 sequence (P00533 669-1210 T790M/L858R): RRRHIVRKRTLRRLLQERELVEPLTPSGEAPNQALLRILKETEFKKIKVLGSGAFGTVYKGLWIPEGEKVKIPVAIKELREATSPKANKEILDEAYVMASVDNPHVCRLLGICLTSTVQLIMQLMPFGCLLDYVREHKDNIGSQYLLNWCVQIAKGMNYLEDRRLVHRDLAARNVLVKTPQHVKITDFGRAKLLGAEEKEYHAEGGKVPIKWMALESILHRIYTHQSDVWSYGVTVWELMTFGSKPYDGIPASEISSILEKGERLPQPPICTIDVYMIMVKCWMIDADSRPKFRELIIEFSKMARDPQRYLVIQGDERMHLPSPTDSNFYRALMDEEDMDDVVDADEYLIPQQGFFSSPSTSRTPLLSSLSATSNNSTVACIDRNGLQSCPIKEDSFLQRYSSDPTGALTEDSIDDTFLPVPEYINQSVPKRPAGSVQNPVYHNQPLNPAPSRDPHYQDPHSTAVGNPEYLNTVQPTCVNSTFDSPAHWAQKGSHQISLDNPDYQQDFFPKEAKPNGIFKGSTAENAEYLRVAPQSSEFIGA

Row | IC50 (EGFR(L858R/T790M); [4]) [µM] | IC50 (EGFR(L858R/T790M); [5]) [µM] | IC50 (H1975 (EGFR L858/T790M)) [nM] | IC50 (H3255 (EGFR L858R)) [nM] | IC50 (HEKn (EGFR WT)) [nM] | IC50 [1] [µM] | IC50 [2] [µM] | IC50 [3] [µM] | SMILES
1 | 0.012 | 0.23 | 234 | 188 | 5400 |  |  |  | COc1cc2nc(NC(=O)c3cc(C)nc(C)c3)n([C@@H]3CCCCN(C(=O)/C=C/CN(C)C)C3)c2cc1Cl [Example 17-179]
2 | < 0.001 | 0.004 | < 1 | 8 | 203 | 0.047 | 0.003 | 0.001 | C=CC(=O)N1CCCC[C@@H](n2c(NC(=O)c3ccccc3)nc3cc(CN4CCCC4)cc(C)c32)C1 [Example 17-111]
3 | < 0.001 | 0.005 | 7 | 9 | 169 |  |  |  | O=C(Nc1nc2cccc(Cl)c2n1[C@@H]1CCCCN(C(=O)/C=C/CN2CC[C@@H](F)C2)C1)c1ccnnc1 [Example 3-11]
4 | < 0.001 | 0.002 | 3 | 3 | 127 | 0.026 | 0.002 | 0.002 | Cc1cccc2nc(NC(=O)c3ccnnc3)n([C@@H]3CCCCN(C(=O)/C=C/CN(C)C)C3)c12 [Example 17-95]
5 | 0.008 | 0.2 | 22 | 490 | > 10000 | > 10 | 0.271 | 0.023 | C=CC(=O)N1CCC[C@@H](n2c(NC(=O)c3cccc(C(F)(F)F)c3)nc3cc(COCCOC)ccc32)C1 [Example 17-124]
6 | 0.01 | 0.218 | 168 | 2020 | > 10000 | > 10 | 0.226 | 0.026 | C=CC(=O)N1CCC[C@@H](n2c(NC(=O)c3cccc(C(F)(F)F)c3)nc3cc(C(N)=O)ccc32)C1 [Example 19, (R)-1-(1-acryloylpiperidin-3-yl)-2-(3-(trifluoromethyl)benzamido)-1H-benzo[d]imidazole-5-carboxamide]
7 | < 0.001 | 0.007 | 10 | 28 | 295 | 0.282 | 0.015 | 0.017 | CN(C)C/C=C/C(=O)N1CCCC[C@@H](n2c(NC(=O)c3ccnnc3)nc3cccc(Cl)c32)C1 [Example 17-16]
8 | 0.005 | 0.68 | 640 | > 10000 | > 10000 | > 10 | 0.156 | 0.005 | C=CC(=O)N1CCC[C@@H](n2c(NC(=O)c3cccc(C(F)(F)F)c3)nc3cc(CN4CCCCC4)ccc32)C1 [Example 17-118]
9 | 0.002 | 0.018 | 76 | 170 | 2340 | 0.38 | 0.018 | 0.015 | COc1ccc2nc(NC(=O)c3ccnnc3)n([C@@H]3CCCCN(C(=O)/C=C/CN(C)C)C3)c2c1Cl [Example 17-2]
10 | < 0.001 | < 0.001 | < 1 | < 1 | 4 | 0.002 | < 0.001 | < 0.001 | Cc1ccccc1-c1cc(C(=O)Nc2nc3cccc(C)c3n2[C@@H]2CCCCN(C(=O)/C=C/CN(C)C)C2)ccn1 [Example 17-80]
11 | 0.005 | 0.062 | 128 | 135 | > 10000 | 1.65 | 0.032 | 0.042 | Cc1cccc2nc(NC(=O)c3ccncn3)n(C3CCCCN(C(=O)/C=C/CN(C)C)C3)c12 (stereo not drawn) [Example 17-37]
12 | < 0.001 | 0.007 | 7 | 130 | 760 | 0.49 | 0.017 | 0.008 | Cc1cccc2nc(NC(=O)c3ccccc3)n(C3CCCCN(C(=O)/C=C/CN(C)C)C3)c12 (stereo not drawn) [Example 17-40]
13 | 0.001 | 0.02 | 29 | 72 | 2330 | 0.6 | 0.022 | 0.027 | COc1cccc2nc(NC(=O)c3ccnnc3)n([C@@H]3CCCCN(C(=O)/C=C/CN(C)C)C3)c12 [Example 17-83]
14 | < 0.001 | 0.007 | 1 | 17 | 237 |  |  |  | C=CC(=O)N1CCCC[C@@H](n2c(NC(=O)c3cccc(F)c3F)nc3cc(CN4CC[C@@H](OC)C4)cc(C)c32)C1 [Example 17-160]
15 | < 0.001 | 0.003 | 4 | 4 | 93 |  |  |  | COc1ccc2nc(NC(=O)c3ccnc(C)c3)n([C@@H]3CCCCN(C(=O)/C=C/CN(C)C)C3)c2c1Cl [Example 17-177]
16 | < 0.001 | 0.006 | 8 | 13 | 620 |  |  |  | Cc1cc(C(=O)Nc2nc3cccc(C)c3n2[C@@H]2CCCCN(C(=O)/C=C/CN3CC[C@@H](F)C3)C2)ccn1 [Example 3-10]
17 |  |  | 1 | 2 | 82 | 0.021 | 0.001 | 0.001 | Cc1cccc2nc(NC(=O)c3ccnc(C(F)(F)F)c3)n([C@@H]3CCCCN(C(=O)/C=C/CN(C)C)C3)c12 [Example 8, (R,E)-N-(1-(1-(4-(dimethylamino)but-2-enoyl)azepan-3-yl)-7-methyl-1H-benzo[d]imidazol-2-yl)-2-(trifluoromethyl)isonicotinamide]
18 | 0.012 | 0.171 |  |  |  | > 10 | 2.23 | 0.12 | Cc1cccc2nc(NC(=O)c3ccnc(C(F)(F)F)c3)n([C@H]3CCCCN(C(=O)/C=C/CN(C)C)C3)c12 (single isomer, unassigned) [Example 21-1]
19 | 0.006 | 0.105 |  |  |  | 0.37 | 0.02 | 0.019 | Cc1cc(C(=O)Nc2nc3cccc(C)c3n2C2CCCCN(C(=O)/C=C/CN(C)C)C2)oc1C (stereo not drawn) [Example 17-59]
